As usually defined, the inhibition in vivo is how much of the control response was suppressed. In general, IC50 refers to the midpoint of a concentration-inhibition curve. A high value points to lower potency.

Test [1] relates to Mus musculus. As to the kind of experiment: Anti-inflammatory activity in mouse model of xylene-induced ear edema assessed as inhibition of ear edema at 100 mg/kg, ip pre-treated before xylene injection and measured 1 hr post xylene injection relative to untreated control. Format: functional.
In test [2] the test system is Mus musculus. As to the kind of experiment: Analgesic activity in mouse at 100 mg/kg, ip measured after 60 mins at 58 degC by hot plate method. Format: functional. In general terms: Hot-plate and tail-flick tests time the reaction to a heat stimulus.
Test [3] relates to Mus musculus. In words: Anti-inflammatory activity in mouse model of xylene-induced ear edema assessed as inhibition of ear edema at 10 mg/kg, ip pre-treated before xylene injection and measured 1 hr post xylene injection relative to untreated control. Format: functional.
The test system of test [4] is Mus musculus. In words: Anti-inflammatory activity in mouse model of xylene-induced ear edema assessed as inhibition of ear edema at 20 mg/kg, ip pre-treated before xylene injection and measured 1 hr post xylene injection relative to untreated control. The format is functional.
Test [5] concerns Mus musculus. As to the kind of experiment: Anti-inflammatory activity in mouse model of xylene-induced ear edema assessed as inhibition of ear edema at 30 mg/kg, ip pre-treated before xylene injection and measured 1 hr post xylene injection relative to untreated control. Format: functional.
For test [6], the system named is Mus musculus. As to the kind of experiment: Analgesic activity in mouse at 10 mg/kg, ip measured after 60 mins at 58 degC by hot plate method. The format is functional.
Test [7] concerns Mus musculus. As to the kind of experiment: Analgesic activity in mouse at 20 mg/kg, ip measured after 60 mins at 58 degC by hot plate method. Format: functional.
The test system of test [8] is Mus musculus. In words: Analgesic activity in mouse at 30 mg/kg, ip measured after 60 mins at 58 degC by hot plate method. The format is functional.
Test [9] addresses T1, Prostaglandin G/H synthase 1 (Ovis aries, UniProt P05979).
T1 sequence (P05979 whole entry): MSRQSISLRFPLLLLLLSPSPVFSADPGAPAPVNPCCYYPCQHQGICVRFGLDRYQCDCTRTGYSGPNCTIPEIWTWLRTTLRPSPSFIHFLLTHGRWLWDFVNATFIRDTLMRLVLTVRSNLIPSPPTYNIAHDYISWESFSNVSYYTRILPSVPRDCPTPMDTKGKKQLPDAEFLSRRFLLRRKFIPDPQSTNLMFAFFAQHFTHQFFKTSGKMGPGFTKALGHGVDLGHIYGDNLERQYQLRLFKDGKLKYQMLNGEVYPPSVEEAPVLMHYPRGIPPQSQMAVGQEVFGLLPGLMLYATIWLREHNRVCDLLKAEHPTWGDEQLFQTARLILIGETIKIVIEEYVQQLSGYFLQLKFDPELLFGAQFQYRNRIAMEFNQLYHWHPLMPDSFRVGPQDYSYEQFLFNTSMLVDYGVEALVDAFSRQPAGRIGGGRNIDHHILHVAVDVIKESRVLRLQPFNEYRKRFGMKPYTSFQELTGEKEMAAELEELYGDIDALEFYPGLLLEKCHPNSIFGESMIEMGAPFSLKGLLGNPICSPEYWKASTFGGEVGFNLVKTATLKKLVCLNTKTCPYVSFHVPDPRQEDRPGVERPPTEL
As to the kind of experiment: Inhibition of ovine COX1.

The subject of test [10] is Mus musculus. In words: Anti-inflammatory activity in mouse model of xylene-induced ear edema assessed as inhibition of ear edema at 10 to 30 mg/kg, ip pre-treated before xylene injection and measured 1 hr post xylene injection relative to untreated control. Format: functional, organism-based.

Consider `O=C(NCc1ccccc1)N1CCc2ccccc2[C@@H]1c1ccccc1`, for which the inhibition in vivo at 100 mg/kg in the test on Mus musculus [1] was determined as 77.4%. The compound further yielded an Activity in the test with Mus musculus [2] of 96.3%.

Take `O=C(Nc1cccc(F)c1)N1CCc2ccccc2[C@@H]1c1ccccc1`: in the test on Mus musculus [1], the inhibition in vivo at 100 mg/kg amounted to 84.9%. In the test on Mus musculus [2], the Activity was found to be 89.8%.

Turning to `O=C(Nc1cccc(Br)c1)N1CCc2ccccc2[C@@H]1c1ccccc1`, the inhibition in vivo at 100 mg/kg in the test on Mus musculus [1] stood at 83.1%. Also, the inhibition in vivo at 10 mg/kg in the test with Mus musculus [3] worked out at 44.2%. The inhibition in vivo at 20 mg/kg with Mus musculus [4] was determined as 51.7%. Also, the inhibition in vivo at 30 mg/kg in the test on Mus musculus [5] came to 61.2%. Moreover, the Activity with Mus musculus [2] amounted to 89.8%; with Mus musculus [6] it was 58.7%; with Mus musculus [7], 63.7%; in the test on Mus musculus [8], 80.2%. 7.85 µM corresponded to half-maximal inhibition in test [9] (IC50).

Regarding `COc1cccc(NC(=O)N2CCc3ccccc3[C@@H]2c2ccccc2)c1`, the inhibition in vivo at 100 mg/kg in the test on Mus musculus [1] turned out to be 85.9%. In the test with Mus musculus [2], this compound came in with an Activity of 94.6%.

Turning to `O=C(Nc1cccc(Cl)c1)N1CCc2ccccc2[C@@H]1c1ccccc1`, the inhibition in vivo at 100 mg/kg with Mus musculus [1] turned out to be 88%. The same compound had an Activity with Mus musculus [2] of 100%.

Take `COc1ccc2c(c1)c(CC(=O)O)c(C)n2C(=O)c1ccc(Cl)cc1` [INDOMETHACIN]: the inhibition in vivo at 10 mg/kg with Mus musculus [3] was in the range of 51 to 90.4%. Further, the figures for the Activity with Mus musculus [2] and with Mus musculus [6] were 98.6% and 73.7%, respectively.

As for `O=C(Nc1c(Cl)cccc1Cl)N1CCc2ccccc2[C@@H]1c1ccccc1`, in the test with Mus musculus [1], the inhibition in vivo at 100 mg/kg is 92.7%. In addition, the inhibition entry in the test with Mus musculus [10] is “Dose-dependent effect”. This compound came in with an Activity in the test with Mus musculus [2] of 100%.

Turning to `O=C(N(c1ccccc1)c1ccccc1)N1CCc2ccccc2[C@@H]1c1ccccc1`, the inhibition in vivo at 100 mg/kg with Mus musculus [1] amounted to 86.3%. Moreover, the Activity with Mus musculus [2] is on record as 73.3%.

With `O=C(Nc1ccccc1)N1CCc2ccccc2[C@@H]1c1ccccc1`, the inhibition in vivo at 100 mg/kg in the test on Mus musculus [1] stood at 95%. For the same compound, the inhibition in vivo at 10 mg/kg in the test on Mus musculus [3] worked out at 60.3%. In the test with Mus musculus [4], the inhibition in vivo at 20 mg/kg amounted to 69.5%. Besides, in the test on Mus musculus [5], the inhibition in vivo at 30 mg/kg is 74.7%. Besides, in the test on Mus musculus [10], the inhibition entry was “Dose-dependent effect”. Moreover, the Activity in the test with Mus musculus [2] was found to be 100%; in the test on Mus musculus [6], 69.6%; in the test with Mus musculus [7] it was 76.4%; in the test on Mus musculus [8] it was 87.2%. The compound also showed an IC50 in test [9] of 5.42 µM.

As for `Cc1cccc(NC(=O)N2CCc3ccccc3[C@@H]2c2ccccc2)c1`, the inhibition in vivo at 100 mg/kg with Mus musculus [1] is 86.4%. Besides, the Activity in the test with Mus musculus [2] is 99.2%.
